These are literature values, as cited in patent US12714758B2, “DOTA-hapten compositions for anti-DOTA/anti-tumor antigen bispecific antibody pretargeted radioimmunotherapy” (Memorial Sloan Kettering Cancer Center, priority 2020, dated 2026).

For this data set, the system named is GD2. The following applies: 24 hours post-injection.

As for “^177Lu-S-2-(4-aminobenzyl)-1,4,7,10-tetraazacyclododecane tetraacetic acid chelate [^177Lu-DOTA-Bn]”, the blood uptake is reported as 0.49±0.09 % ID/g and the kidney uptake is recorded as 0.83±0.10 % ID/g. Moreover, the tumor uptake (average±SD, n=5) was 10.29±2.87 % ID/g.
